In doi:10.1101/2023.11.24.568596v1 (biorxiv, 2023):

Columns and labels:
Conditions in all cases: binder
CK2a2 = CK2a2 (Homo sapiens, UniProt P19784)
PHKG2 = biological target: T1, PHKG2 (Homo sapiens, UniProt P15735)
T1 sequence (P15735 1-406): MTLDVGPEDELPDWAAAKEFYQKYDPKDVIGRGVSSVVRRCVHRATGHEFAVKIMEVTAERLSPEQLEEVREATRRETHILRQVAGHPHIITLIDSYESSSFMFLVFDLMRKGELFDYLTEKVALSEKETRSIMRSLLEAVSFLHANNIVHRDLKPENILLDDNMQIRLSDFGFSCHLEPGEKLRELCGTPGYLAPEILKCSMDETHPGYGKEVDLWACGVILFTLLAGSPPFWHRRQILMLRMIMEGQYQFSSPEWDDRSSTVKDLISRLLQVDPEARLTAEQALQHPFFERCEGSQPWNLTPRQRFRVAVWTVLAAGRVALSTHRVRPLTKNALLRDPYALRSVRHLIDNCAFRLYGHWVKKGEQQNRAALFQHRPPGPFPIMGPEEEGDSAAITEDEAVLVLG

MST4 = MST4 (Homo sapiens, UniProt Q9P289)
Chain of MST4 (Q9P289 whole entry): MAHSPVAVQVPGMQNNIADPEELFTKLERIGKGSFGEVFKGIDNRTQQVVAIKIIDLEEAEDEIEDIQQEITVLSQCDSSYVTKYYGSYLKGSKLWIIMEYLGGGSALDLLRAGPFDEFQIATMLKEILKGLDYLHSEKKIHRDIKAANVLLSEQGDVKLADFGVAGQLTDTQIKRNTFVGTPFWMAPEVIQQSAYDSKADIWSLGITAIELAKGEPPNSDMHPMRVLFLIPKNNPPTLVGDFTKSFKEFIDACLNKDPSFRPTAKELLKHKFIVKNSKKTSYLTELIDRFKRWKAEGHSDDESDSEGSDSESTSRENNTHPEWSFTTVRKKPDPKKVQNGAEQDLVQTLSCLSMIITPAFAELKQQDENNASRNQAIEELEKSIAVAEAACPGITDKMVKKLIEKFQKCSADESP

EphB3 = biological target: T2, EphB3 (Homo sapiens, UniProt P54753)
T2 sequence (P54753 1-998): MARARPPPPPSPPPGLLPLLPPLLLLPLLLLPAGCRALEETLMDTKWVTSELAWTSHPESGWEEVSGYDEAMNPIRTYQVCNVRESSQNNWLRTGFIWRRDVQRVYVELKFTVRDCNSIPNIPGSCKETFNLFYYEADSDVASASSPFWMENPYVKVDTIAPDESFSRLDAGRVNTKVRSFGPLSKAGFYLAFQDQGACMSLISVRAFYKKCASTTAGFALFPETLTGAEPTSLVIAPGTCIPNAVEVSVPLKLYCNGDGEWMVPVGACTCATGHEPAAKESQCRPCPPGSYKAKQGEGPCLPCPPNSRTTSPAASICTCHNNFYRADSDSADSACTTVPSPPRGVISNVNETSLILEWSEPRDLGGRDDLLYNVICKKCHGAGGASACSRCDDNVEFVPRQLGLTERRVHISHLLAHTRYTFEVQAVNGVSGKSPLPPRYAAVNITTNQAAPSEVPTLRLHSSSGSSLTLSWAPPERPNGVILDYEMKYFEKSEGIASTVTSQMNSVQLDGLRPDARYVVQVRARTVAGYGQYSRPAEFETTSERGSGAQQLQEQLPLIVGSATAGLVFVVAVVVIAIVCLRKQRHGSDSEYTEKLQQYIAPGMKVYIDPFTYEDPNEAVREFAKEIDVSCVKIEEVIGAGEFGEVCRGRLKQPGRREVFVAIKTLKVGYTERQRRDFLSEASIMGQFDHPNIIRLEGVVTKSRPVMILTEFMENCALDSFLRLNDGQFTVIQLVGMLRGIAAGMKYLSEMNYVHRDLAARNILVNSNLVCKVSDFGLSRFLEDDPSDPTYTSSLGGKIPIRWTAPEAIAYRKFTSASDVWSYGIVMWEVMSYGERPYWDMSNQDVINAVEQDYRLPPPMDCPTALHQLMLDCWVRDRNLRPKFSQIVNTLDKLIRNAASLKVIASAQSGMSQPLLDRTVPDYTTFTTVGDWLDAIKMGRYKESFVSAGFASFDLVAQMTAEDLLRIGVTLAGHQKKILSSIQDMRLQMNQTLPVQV

MER = biological target: T3, MER (Homo sapiens, UniProt Q12866)
T3 sequence (Q12866 1-999): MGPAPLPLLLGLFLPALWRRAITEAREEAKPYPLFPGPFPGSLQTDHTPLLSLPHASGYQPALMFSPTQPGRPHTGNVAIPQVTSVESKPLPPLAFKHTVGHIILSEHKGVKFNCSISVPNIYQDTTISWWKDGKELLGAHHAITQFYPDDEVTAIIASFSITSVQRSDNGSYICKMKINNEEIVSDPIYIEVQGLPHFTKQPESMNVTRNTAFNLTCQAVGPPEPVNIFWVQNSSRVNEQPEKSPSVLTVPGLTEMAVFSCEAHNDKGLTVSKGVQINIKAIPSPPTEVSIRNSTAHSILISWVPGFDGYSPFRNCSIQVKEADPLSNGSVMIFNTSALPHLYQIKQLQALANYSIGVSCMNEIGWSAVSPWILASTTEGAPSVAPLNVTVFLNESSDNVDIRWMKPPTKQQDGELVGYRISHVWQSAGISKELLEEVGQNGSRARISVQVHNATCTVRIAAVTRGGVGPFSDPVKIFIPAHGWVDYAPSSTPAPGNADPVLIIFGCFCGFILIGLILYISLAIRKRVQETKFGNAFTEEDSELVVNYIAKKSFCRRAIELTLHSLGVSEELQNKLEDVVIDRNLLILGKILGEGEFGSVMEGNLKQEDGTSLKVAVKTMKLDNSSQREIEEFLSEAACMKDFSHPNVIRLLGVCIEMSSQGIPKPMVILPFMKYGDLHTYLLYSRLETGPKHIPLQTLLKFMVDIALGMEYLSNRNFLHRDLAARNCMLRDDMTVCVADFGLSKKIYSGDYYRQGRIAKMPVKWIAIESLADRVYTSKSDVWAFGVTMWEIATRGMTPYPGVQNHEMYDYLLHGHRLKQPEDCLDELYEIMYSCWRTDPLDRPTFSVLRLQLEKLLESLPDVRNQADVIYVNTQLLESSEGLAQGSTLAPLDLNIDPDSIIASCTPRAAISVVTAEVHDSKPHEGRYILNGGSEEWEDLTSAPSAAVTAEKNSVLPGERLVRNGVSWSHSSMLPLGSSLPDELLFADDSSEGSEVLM

ABL1 = ABL1 (Homo sapiens, UniProt P00519)
Chain of ABL1 (P00519 whole entry): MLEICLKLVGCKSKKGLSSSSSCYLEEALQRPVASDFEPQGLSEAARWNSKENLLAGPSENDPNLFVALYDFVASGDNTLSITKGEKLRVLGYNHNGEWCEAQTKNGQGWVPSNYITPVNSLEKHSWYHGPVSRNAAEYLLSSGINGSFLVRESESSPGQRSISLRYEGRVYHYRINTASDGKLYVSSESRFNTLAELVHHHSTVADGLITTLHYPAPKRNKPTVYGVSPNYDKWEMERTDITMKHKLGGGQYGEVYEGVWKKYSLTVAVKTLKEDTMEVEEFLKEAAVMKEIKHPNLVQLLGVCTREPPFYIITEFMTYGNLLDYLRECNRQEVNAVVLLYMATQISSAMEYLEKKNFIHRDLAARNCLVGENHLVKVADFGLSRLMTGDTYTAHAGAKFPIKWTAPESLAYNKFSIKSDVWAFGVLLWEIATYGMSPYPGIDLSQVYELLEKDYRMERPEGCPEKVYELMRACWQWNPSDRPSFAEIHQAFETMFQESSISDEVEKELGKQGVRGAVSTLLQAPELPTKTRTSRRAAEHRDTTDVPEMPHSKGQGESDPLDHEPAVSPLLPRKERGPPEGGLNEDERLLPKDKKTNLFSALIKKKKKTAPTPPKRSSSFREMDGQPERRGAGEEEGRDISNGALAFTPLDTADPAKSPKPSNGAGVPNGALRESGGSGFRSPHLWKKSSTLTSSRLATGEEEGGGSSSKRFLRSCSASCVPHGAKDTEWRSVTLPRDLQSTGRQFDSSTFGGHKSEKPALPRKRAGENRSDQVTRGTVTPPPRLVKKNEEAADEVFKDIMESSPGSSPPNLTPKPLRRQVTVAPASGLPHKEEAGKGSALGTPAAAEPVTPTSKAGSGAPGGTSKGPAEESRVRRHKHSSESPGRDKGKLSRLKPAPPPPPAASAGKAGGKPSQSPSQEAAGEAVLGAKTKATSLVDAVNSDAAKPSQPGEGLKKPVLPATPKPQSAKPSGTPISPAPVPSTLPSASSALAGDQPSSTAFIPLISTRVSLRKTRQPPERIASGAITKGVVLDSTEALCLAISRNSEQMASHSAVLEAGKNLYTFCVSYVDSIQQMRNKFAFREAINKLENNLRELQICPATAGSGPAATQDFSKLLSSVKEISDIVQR

MSK1b = MSK1b (Homo sapiens, UniProt O75582)
Chain of MSK1b (O75582 whole entry): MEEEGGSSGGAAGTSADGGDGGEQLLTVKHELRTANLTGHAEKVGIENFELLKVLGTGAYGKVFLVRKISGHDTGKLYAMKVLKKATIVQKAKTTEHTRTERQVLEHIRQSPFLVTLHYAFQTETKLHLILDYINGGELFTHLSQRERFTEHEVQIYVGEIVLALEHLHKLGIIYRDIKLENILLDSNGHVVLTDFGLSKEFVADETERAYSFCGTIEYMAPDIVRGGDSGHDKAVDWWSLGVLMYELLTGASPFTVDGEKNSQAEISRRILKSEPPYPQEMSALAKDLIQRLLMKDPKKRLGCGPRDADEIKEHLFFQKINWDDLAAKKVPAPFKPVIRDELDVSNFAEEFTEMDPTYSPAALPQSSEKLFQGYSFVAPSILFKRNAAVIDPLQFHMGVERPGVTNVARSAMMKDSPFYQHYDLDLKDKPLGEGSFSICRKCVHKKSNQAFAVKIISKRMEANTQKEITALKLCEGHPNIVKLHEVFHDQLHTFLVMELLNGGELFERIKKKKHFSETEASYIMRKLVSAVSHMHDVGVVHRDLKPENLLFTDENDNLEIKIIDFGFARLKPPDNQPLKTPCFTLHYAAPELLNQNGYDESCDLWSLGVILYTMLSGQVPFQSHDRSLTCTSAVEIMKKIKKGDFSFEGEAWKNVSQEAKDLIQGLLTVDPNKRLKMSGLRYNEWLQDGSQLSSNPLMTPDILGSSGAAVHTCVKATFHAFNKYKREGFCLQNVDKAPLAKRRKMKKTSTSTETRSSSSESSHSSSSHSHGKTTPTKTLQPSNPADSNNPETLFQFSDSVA

CaMK2d = CaMK2d (Homo sapiens, UniProt Q13557)
Chain of CaMK2d (Q13557 whole entry): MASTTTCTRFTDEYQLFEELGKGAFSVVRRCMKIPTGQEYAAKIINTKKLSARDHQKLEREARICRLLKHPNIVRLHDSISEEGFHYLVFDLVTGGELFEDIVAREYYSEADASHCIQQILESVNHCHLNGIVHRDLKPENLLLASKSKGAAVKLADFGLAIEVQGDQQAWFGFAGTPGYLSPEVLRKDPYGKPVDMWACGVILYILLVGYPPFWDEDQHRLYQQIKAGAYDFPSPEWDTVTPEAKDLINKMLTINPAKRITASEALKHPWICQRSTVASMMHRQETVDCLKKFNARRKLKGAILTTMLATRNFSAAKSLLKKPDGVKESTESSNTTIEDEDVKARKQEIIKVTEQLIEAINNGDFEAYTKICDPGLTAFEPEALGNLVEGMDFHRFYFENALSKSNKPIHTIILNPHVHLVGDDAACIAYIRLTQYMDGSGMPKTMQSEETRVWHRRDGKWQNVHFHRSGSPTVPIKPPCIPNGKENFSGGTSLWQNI

Chain of CK2a2 (P19784 whole entry): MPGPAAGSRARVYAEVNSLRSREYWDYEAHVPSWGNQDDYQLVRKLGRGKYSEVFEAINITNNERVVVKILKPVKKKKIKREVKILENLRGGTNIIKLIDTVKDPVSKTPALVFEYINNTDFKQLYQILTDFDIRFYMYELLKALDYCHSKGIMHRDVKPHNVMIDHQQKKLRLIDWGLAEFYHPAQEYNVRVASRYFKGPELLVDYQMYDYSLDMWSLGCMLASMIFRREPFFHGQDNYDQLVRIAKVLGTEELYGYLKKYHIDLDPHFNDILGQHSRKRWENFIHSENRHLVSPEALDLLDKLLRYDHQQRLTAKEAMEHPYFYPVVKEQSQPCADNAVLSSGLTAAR

For `CNc1ncc2cc(-c3ccc(-c4cccc(C)n4)cc3Cl)c(=O)n(CCCCN)c2n1` [compound 20, MRLW5], the “ΔTm MRLW5 (20)” value (CK2a2) was -0.6 °C, the “ΔTm MRLW5 (20)” value (PHKG2) was 1.8 °C and the “ΔTm MRLW5 (20)” value (MST4) was 11.4 °C. For the same molecule, the “ΔTm MRLW5 (20)” value (EphB3) was 2.5 °C, the “ΔTm MRLW5 (20)” value (MER) was 2.5 °C and the “ΔTm MRLW5 (20)” value (ABL1) was 4.9 °C. For the same molecule, the “ΔTm MRLW5 (20)” value (MSK1b) was 2.9 °C and the “ΔTm MRLW5 (20)” value (CaMK2d) was 0.1 °C.

For `CNc1ncc2cc(-c3ccc(-c4cccc(C)n4)cc3Cl)c(=O)n(CCC3CCNCC3)c2n1` [compound 22, 6-(2-Chloro-4-(6-methylpyridin-2-yl)phenyl)-2-(methylamino)-8-(2-(piperidin-4-yl)ethyl)pyrido[2,3-d]pyrimidin-7(8H)-one], the “ΔTm 22” value (CK2a2) was -1.4 °C, the “ΔTm 22” value (PHKG2) was 1.4 °C and the “ΔTm 22” value (MST4) was 7.8 °C. The “ΔTm 22” value (EphB3) was 2.6 °C, the “ΔTm 22” value (MER) was 2.6 °C and the “ΔTm 22” value (ABL1) was 4.9 °C. For the same molecule, the “ΔTm 22” value (MSK1b) was 0.1 °C and the “ΔTm 22” value (CaMK2d) was 0.0 °C.

With `CNc1ncc2cc(-c3ccc(-c4cccc(C)n4)cc3Cl)c(=O)n(C[C@H]3CC[C@H](N)CC3)c2n1` [compound 23, 23] the “ΔTm 23” value (CK2a2) was -0.9 °C, the “ΔTm 23” value (PHKG2) was 2.4 °C and the “ΔTm 23” value (MST4) was 8.2 °C. For the same molecule, the “ΔTm 23” value (EphB3) was 3.6 °C, the “ΔTm 23” value (MER) was 3.1 °C and the “ΔTm 23” value (ABL1) was 7.9 °C. The “ΔTm 23” value (MSK1b) was 6.4 °C and the “ΔTm 23” value (CaMK2d) was -0.2 °C.

For `Cc1cccc(-c2ccc(-c3cc4cnc(NC(CO)CO)nc4n(CCCCN)c3=O)c(Cl)c2)n1` [compound 24, 8-(4-Aminobutyl)-6-(2-chloro-4-(6-methylpyridin-2-yl)phenyl)-2-((1,3-dihydroxypropan-2-yl)amino)pyrido[2,3-d]pyrimidin-7(8H)-one], the “ΔTm MR24 (24)” value (CK2a2) was -2.0 °C, the “ΔTm MR24 (24)” value (PHKG2) was 1.0 °C and the “ΔTm MR24 (24)” value (MST4) was 9.1 °C. The “ΔTm MR24 (24)” value (EphB3) was 0.2 °C, the “ΔTm MR24 (24)” value (MER) was -0.7 °C and the “ΔTm MR24 (24)” value (ABL1) was 1.4 °C. The “ΔTm MR24 (24)” value (MSK1b) was -1.0 °C and the “ΔTm MR24 (24)” value (CaMK2d) was -0.2 °C.

`Cc1cccc(-c2ccc(-c3cc4cnc(NCCCc5ccc(N)cc5)nc4n(CCCCN)c3=O)c(Cl)c2)n1` [compound 25, 8-(4-Aminobutyl)-2-((3-(4-aminophenyl)propyl)amino)-6-(2-chloro-4-(6-methylpyridin-2-yl)phenyl)pyrido[2,3-d]pyrimidin-7(8H)-one] was tested, and the “ΔTm 25” value (CK2a2) was -1.9 °C, the “ΔTm 25” value (PHKG2) was 4.0 °C and the “ΔTm 25” value (MST4) was 9.6 °C. For the same molecule, the “ΔTm 25” value (EphB3) was 2.8 °C, the “ΔTm 25” value (MER) was 1.6 °C and the “ΔTm 25” value (ABL1) was 3.9 °C. For the same molecule, the “ΔTm 25” value (MSK1b) was 1.4 °C and the “ΔTm 25” value (CaMK2d) was -0.2 °C.

For `Cc1cccc(-c2ccc(-c3cc4cnc(NCCCN5CCOCC5)nc4n(CCCCN)c3=O)c(Cl)c2)n1` [compound 26, MR26], the “ΔTm MR26 (26)” value (CK2a2) was -1.0 °C, the “ΔTm MR26 (26)” value (PHKG2) was 2.1 °C and the “ΔTm MR26 (26)” value (MST4) was 11.2 °C. The “ΔTm MR26 (26)” value (EphB3) was 2.4 °C, the “ΔTm MR26 (26)” value (MER) was 1.0 °C and the “ΔTm MR26 (26)” value (ABL1) was 2.9 °C. The “ΔTm MR26 (26)” value (MSK1b) was -0.4 °C and the “ΔTm MR26 (26)” value (CaMK2d) was -0.1 °C.
